Results from patent US4238491A (priority 1977, dated 1980).
Where two headings read alike, the source gives them in different places.

Legend:
[1] = test system: rats
From the text: Rats were sacrificed under anesthesia with ether. After observation of gross appearance of all the organs, extraction and weighing were made on spleen, lung, liver, adrenal, heart, thymus, kidney, testicles, hypophysis and thyroid. In addition to the above organs, femoral bone marrow, lymph node, stomach, intestine, pancreas, urinary bladder, prostate and central nervous system were removed and fixed in 10% formaline solution.

[2] = test system: rat; conditions: oral
[3] = 20 mg/kg oral
Description: Blood was drawn from branchial vein of dogs, vein of ear of rabbits and carotic artery of rats after slaughter. Urine was collected with urine bladder catheter for rabbits and metabolic cages for rats. Gathering bile was performed with biliary duct cannulation without anesthesia.

[4] = rat, in vivo, po
[5] = test system: serotonin in Brain; conditions: in vivo; cited from earlier work

Compound: COC(=O)[C@H]1[C@H]2C[C@@H]3c4[nH]c5cc(OC)ccc5c4CCN3C[C@H]2C[C@@H](O)[C@@H]1OC [MR, methylreserpate]
- Absolute weight Brain ([1]; 25.0 mg/kg): 2.26 ± 0.04 g
- Absolute weight Hypophysis ([1]; 25.0 mg/kg): 11.98 ± 0.44 mg
- Absolute weight Kidney ([1]; 25.0 mg/kg): 1.20 ± 0.04 g
- Absolute weight Liver ([1]; 25.0 mg/kg): 10.00 ± 0.47 g
- Absolute weight Lung ([1]; 25.0 mg/kg): 2.35 ± 0.05 g
- Absolute weight Spleen ([1]; 25.0 mg/kg): 0.71 ± 0.03 g
- Absolute weight Thymus ([1]; 25.0 mg/kg): 0.54 ± 0.02 g
- Absolute weight Thyroid ([1]; 25.0 mg/kg): 10.07 ± 0.55 mg
- Absolute weight Salivary ([1]; 25.0 mg/kg, P<0.01): 0.26 ± 0.01 g
- Absolute weight Brain ([1]; 50.0 mg/kg): 2.26 ± 0.03 g
- Absolute weight Hypophysis ([1]; 50.0 mg/kg): 11.93 ± 0.48 mg
- Absolute weight Kidney ([1]; 50.0 mg/kg): 1.19 ± 0.03 g
- Absolute weight Liver ([1]; 50.0 mg/kg): 10.16 ± 0.33 g
- Absolute weight Lung ([1]; 50.0 mg/kg): 2.26 ± 0.10 g
- Absolute weight Spleen ([1]; 50.0 mg/kg): 0.73 ± 0.03 g
- Absolute weight Thymus ([1]; 50.0 mg/kg): 0.58 ± 0.05 g
- Absolute weight Thyroid ([1]; 50.0 mg/kg): 8.55 ± 0.50 mg
- Absolute weight Salivary ([1]; 50.0 mg/kg, P<0.05): 0.26 ± 0.01 g
- absolute weight of other organs ([1]; 100 mg/kg): decrease in weight of the other organs
- Absolute weight Hypophysis ([1]; 100.0 mg/kg): 10.46 ± 0.17 mg
- Absolute weight Spleen ([1]; 100.0 mg/kg): 0.56 ± 0.03 g
- Absolute weight Thyroid ([1]; 100.0 mg/kg): 7.86 ± 0.38 mg
- Absolute weight Kidney ([1]; 100.0 mg/kg, P<0.01): 0.89 ± 0.03 g
- Absolute weight Salivary ([1]; 100.0 mg/kg, P<0.01): 0.21 ± 0.01 g
- Absolute weight Thymus ([1]; 100.0 mg/kg, P<0.01): 0.39 ± 0.03 g
- Absolute weight Brain ([1]; 100.0 mg/kg, P<0.05): 2.17 ± 0.04 g
- Absolute weight Liver ([1]; 100.0 mg/kg, P<0.05): 7.55 ± 0.32 g
- Absolute weight Lung ([1]; 100.0 mg/kg, P<0.05): 2.10 ± 0.06 g
- absolute adrenal weight ([1]; 25 and 50 mg/kg groups): weight increase of adrenal
- Absolute weight Brain ([1]; rat, in vivo): 2.28±0.03
- Absolute weight Hypophysis ([1]; rat, in vivo): 10.60±0.41
- Absolute weight Kidney ([1]; rat, in vivo): 1.17±0.05
- Absolute weight Liver ([1]; rat, in vivo): 10.18±0.50
- Absolute weight Lung ([1]; rat, in vivo): 1.32±0.12
- Absolute weight Salivary ([1]; rat, in vivo): 0.27±0.01
- Absolute weight Spleen ([1]; rat, in vivo): 0.69±0.03
- Absolute weight Thymus ([1]; rat, in vivo): 0.63±0.04
- Absolute weight Thyroid ([1]; rat, in vivo): 8.59±0.50
- gross appearance of organs ([1]; rat, in vivo): no noteworthy change
- LD50 as multiple of clinical dosage of RCN [2]: about 24,000 times
- Area under the Curve of MR Content in Serum [3]: 63.6
- metabolism [4]: hardly metabolized
- serotonin in Brain [5]: no decrease of serotonin in Brain
